US20160030407A1, “Method of Treating Inflammatory Lung Disease” (priority 2010, published 2016)
Several values for one entry are separate records, joined by “and”; a condition that tells them apart may be missing. Identical values can stand only once. Like-named read-outs stand apart in the source and are kept apart here.

What was measured:
[1] = Single i.v. dose toxicity: urinalysis; assay type: in vivo, Sprague-Dawley rats; details: for urinalysis parameters vs controls: rat, day 15 after single i.v. dose; for Urinalysis KETONES / Urinalysis BILIRUBIN / Urinalysis BLOOD / Urinalysis PROTEIN / Urinalysis pH / Urinalysis CLARITY / Urinalysis COLOR / Urinalysis GLUCOSE / Urinalysis UROBILINOGEN / Urinalysis VOLUME: individual animals M and F
Description: On day 15, urine was collected on all surviving animals for urinalysis. The animals were euthanized and bled via cardiac puncture. Blood was collected for hematology, clinical chemistry, and coagulation analysis. Tissues were collected, weighed, and stored in 10% neutral-buffered formalin for possible future analysis.

nAChR α4/β2 = molecular target: T1, nAChR α4/β2 (Homo sapiens, UniProt P17787+P43681); assay type: cell-based; details: for inhibition: 100 μM Ach + 0.3 μM epibatidine, not concentration-dependent, IC50s could not be determined; for Normalized % Potentiation: with 10 μM Ach, 100% = 10 μM Ach+3 μM epibatidine, 0% = 10 μM Ach
T1 construct: host or cells: HEK293 cells, transient
T1 sequence (P43681 29-627): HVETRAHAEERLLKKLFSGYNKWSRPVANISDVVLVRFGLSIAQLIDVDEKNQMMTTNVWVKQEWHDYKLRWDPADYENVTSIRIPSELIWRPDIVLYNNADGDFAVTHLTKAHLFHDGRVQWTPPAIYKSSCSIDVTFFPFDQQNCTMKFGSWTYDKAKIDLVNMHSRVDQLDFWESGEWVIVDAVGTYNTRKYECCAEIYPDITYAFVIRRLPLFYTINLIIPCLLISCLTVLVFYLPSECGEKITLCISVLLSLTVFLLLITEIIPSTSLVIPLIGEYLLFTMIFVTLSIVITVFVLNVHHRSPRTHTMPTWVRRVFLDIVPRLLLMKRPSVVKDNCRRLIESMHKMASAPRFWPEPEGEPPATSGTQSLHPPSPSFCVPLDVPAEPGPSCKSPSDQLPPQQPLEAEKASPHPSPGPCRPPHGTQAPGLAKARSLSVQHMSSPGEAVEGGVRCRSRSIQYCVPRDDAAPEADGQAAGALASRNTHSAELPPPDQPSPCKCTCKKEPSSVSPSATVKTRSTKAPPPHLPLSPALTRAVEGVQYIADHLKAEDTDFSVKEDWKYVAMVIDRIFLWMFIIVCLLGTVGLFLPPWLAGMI
T1 sequence (P17787 26-502): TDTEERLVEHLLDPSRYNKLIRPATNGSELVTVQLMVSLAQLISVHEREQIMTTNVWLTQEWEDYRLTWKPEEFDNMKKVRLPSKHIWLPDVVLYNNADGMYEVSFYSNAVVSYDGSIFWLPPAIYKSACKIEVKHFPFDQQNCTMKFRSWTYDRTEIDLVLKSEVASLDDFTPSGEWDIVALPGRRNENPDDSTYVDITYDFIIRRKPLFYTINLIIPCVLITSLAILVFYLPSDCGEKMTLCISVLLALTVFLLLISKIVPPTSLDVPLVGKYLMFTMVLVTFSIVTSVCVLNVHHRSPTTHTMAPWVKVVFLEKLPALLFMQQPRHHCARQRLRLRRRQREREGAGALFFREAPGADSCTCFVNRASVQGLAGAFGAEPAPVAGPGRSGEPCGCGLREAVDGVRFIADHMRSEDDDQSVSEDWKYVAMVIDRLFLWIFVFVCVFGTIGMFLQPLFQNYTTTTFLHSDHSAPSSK
Procedure: (§1) Briefly, cells were incubated with […] dye for 30 min at 37° C.

nAChR α3/β4 = nAChR α3/β4 (Homo sapiens, UniProt P30926+P32297); assay type: cell-based
Chain of nAChR α3/β4 (P32297 32-505): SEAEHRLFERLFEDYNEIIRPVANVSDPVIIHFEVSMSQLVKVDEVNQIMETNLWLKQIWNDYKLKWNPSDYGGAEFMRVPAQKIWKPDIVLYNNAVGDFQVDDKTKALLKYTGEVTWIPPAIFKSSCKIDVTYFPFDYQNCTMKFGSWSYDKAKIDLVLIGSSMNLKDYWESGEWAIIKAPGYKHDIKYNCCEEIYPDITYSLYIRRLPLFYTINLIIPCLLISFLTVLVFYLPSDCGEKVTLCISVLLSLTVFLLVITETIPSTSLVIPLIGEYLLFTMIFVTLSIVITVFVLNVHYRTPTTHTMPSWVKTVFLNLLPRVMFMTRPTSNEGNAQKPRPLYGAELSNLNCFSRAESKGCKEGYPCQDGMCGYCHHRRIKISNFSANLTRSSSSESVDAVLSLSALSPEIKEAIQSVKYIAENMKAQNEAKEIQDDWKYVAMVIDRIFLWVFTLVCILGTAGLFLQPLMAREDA
Chain of nAChR α3/β4 (P30926 22-498): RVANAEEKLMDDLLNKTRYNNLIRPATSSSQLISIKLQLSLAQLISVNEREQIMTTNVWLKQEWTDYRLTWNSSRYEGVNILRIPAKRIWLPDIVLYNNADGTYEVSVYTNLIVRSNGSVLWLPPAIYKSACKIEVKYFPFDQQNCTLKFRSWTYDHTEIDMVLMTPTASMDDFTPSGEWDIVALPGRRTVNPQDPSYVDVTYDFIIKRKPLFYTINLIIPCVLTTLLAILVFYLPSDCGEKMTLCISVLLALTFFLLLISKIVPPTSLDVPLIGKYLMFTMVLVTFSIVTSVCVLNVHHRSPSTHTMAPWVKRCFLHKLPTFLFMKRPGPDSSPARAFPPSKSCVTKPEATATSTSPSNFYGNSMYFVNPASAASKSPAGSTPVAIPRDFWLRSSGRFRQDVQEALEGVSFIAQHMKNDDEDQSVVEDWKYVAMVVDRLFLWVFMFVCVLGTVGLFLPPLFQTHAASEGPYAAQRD
Procedure: as §1

[2] = tested on: phosphorylated p65 (NFκB); assay: p65 phosphorylation in brain after intracranial TNFα; assay type: in vivo, mice (B6/SJL); details: mice, 2 mg/kg i.p., normalized to actin
Procedure: After 5 minutes, mice were intracranially injected with 0.5 mg of TNFα. Mice were euthanized ten minutes after the intracranial injection. The portion of the brain surrounding the intracranial site of injection was collected, and proteins were extracted. Phosphorylation of p65 was measured with an antibody towards phosphorylated p65.

[3] = Plasma toxicokinetics after single i.v. bolus; assay type: in vivo, Sprague-Dawley rats; details: for Concentration in rat plasma: Anatabine 0.1 mg/kg dose group, individual rats; for Avg. Conc. (Combined Male and Female) / Avg. Conc. (Male or Female): Rat Plasma; for half-life: Sprague-Dawley, iv
Procedure: Six rats (3 males and 3 females) were dosed per dose group. […] Plasma and brain homogenates were stored at −80° C. until analysis.
An additional 48 rats (24 males and 24 females) received a single intravenous dose via the tail vein at the same doses as mentioned above. At 30 and 360 minutes post administration, 6 rats (3 males and 3 females) per dose group, per time point were euthanized, bled via cardiac puncture, and perfused, and brains were collected. The brains were homogenized. Blood was spun, and plasma was collected. Plasma and brain homogenate were stored at −80° C.
Four aliquots of each dose level formulation were collected and stored at −80° C. The test compound, corresponding dose level, number of animals, and sample collection times for Phase I of the study are shown in Table 3. The test compound, corresponding dose level, number of animals, and sample collection times for Phase II of the study are shown in Table 4. The physical signs of each animal were monitored following administration of the test compound.
The animals were weighed prior to dosing and received a single i.v. dose of either test compound at a volume of 5 mL/kg. Blood was collected via the venus plexus (retro-orbital) into tubes containing (K2) EDTA. No more than 0.5 mL was collected per time point. […] The brain was removed, weighed, homogenized in sterile 0.9% saline at a volume equal to its weight, and stored at −80° C.
Plasma was separated according to the instructions for MICROTAINER® brand collection tubes (3 minutes, 2000×g). Plasma was decanted into microfuge tubes and stored at −80° C. Remaining test compound was stored at −80° C.
The amount of the test agent in the supernatant was determined by liquid chromatography tandem mass spectrometry (LC/MS/MS).
Analysis. Samples were analyzed by LC/MS/MS using an Agilent 6410 mass spectrometer coupled with an Agilent 1200 high pressure liquid chromatography (HPLC) and a CTC PAL chilled autosampler, all controlled by MassHunter software (Agilent). After separation on a hydrophilic interaction liquid chromatography (HILIC) HPLC column (Sepax) using an acetonitrile-ammonium acetate/acetic acid gradient system, peaks were analyzed by mass spectrometry (MS) using ESI ionization in multiple reaction monitoring (MRM) mode. MassHunter software was used to calculate the concentration of the test compounds in samples from the peak area using the appropriate calibration curves.

[4] = Anatabine dose 0.1 mg/kg, 0.1 mg/kg, female rats
[5] = Anatabine dose 0.1 mg/kg, 0.1 mg/kg, male rats
[6] = Anatabine dose 0.1 mg/kg, female rats
[7] = Anatabine dose 0.1 mg/kg, male rats
[8] = Anatabine dose 0.75 mg/kg, 0.75 mg/kg, female rats
[9] = Anatabine dose 0.75 mg/kg, 0.75 mg/kg, male rats
[10] = Anatabine dose 0.75 mg/kg, female rats
[11] = Anatabine dose 0.75 mg/kg, male rats
[12] = rat plasma, single i.v. 0.1 mg/kg, female
[13] = rat plasma, single i.v. 0.75 mg/kg, male
[14] = rat plasma, single i.v. 0.1 mg/kg, M + F
[15] = rat plasma, single i.v. 0.1 mg/kg, male
[16] = rat plasma, single i.v. 0.75 mg/kg, M + F
[17] = rat plasma, single i.v. 0.75 mg/kg, female
[18] = rat plasma, single i.v. 1.0 mg/kg, M + F
[19] = rat plasma, single i.v. 1.0 mg/kg, female
[20] = rat plasma, single i.v. 1.0 mg/kg, male

In the case of `CN1CCCC1c1cccnc1.O=C(O)C(O)C(O)C(=O)O` (single isomer, unassigned; (-)) [Nicotine, (−) Nicotine hydrogen tartrate, reference compound], the “urinalysis parameters vs controls” value [1] is reported as “no notable differences in any of the urinalysis parameters”, the inhibition (nAChR α4/β2) is reported as “inhibited receptor activity” and the “Normalized % Potentiation” value (nAChR α4/β2; test conc 0.3 μM) is reported as −46.00%. For the same compound, the “Normalized % Potentiation” value (nAChR α4/β2; test conc 1 μM) was −46.34%, the “Normalized % Potentiation” value (nAChR α4/β2; test conc 3 μM) was −40.54% and the “Normalized % Potentiation” value (nAChR α4/β2; test conc 10 μM) was −42.16%. The “Normalized % Potentiation” value (nAChR α4/β2; test conc 30 μM) was −43.70%, the “Normalized % Potentiation” value (nAChR α4/β2; test conc 100 μM) was −43.40% and the “Normalized % Potentiation” value (nAChR α4/β2; test conc 300 μM) was −34.56%. For the same compound, the “Normalized % Potentiation” value (nAChR α4/β2; test conc 1000 μM) was −39.66% and the potentiation (nAChR α3/β4) was “Neither nicotine nor anatabine potentiated”.
For `C1=CCC(c2cccnc2)NC1` (racemic) [Anatabine, 1,2,3,6-tetrahydro-[2,3′]bipyridinyl], the “Urinalysis KETONES” value ([1]; Anatabine dose 0.1 mg/kg, 0.1 mg/kg) was “NEGATIVE”, the “Urinalysis BILIRUBIN” value [1, 4] was “NEGATIVE” and the “Urinalysis BLOOD” value [1, 4] was “NEG- (3×) and TRACE”. For the same compound, the “Urinalysis PROTEIN” value [1, 4] was “NEG-”, the “Urinalysis pH” value [1, 4] was 7.5 (2×) and 7 and 8 and the “Urinalysis BILIRUBIN” value [1, 5] was “NEGATIVE”. The “Urinalysis BLOOD” value [1, 5] was “TRACE (2×) and NEG-”, the “Urinalysis PROTEIN” value [1, 5] was “TRACE (3×) and NEG-” and the “Urinalysis pH” value [1, 5] was 8.5 and 7.5 (2×) and 7. The “Urinalysis CLARITY” value [1, 6] was “HAZY”, the “Urinalysis COLOR” value [1, 6] was “YELLOW” and the “Urinalysis GLUCOSE” value [1, 6] was “NEGATIVE”. For the same compound, the “Urinalysis UROBILINOGEN” value [1, 6] was “NORMAL”, the “Urinalysis VOLUME” value [1, 6] was <0.5 mL and the “Urinalysis CLARITY” value [1, 7] was “HAZY”. The “Urinalysis COLOR” value [1, 7] was “YELLOW”, the “Urinalysis GLUCOSE” value [1, 7] was “NEGATIVE” and the “Urinalysis UROBILINOGEN” value [1, 7] was “NORMAL”. For the same compound, the “Urinalysis VOLUME” value [1, 7] was <0.5 mL, the “Urinalysis CLARITY” value ([1]; Anatabine dose 0.75 mg/kg) was “HAZY” and the “Urinalysis COLOR” value ([1]; Anatabine dose 0.75 mg/kg) was “YELLOW”. The “Urinalysis VOLUME” value ([1]; Anatabine dose 0.75 mg/kg) was <0.5 mL, the “Urinalysis PROTEIN” value ([1]; Anatabine dose 0.75 mg/kg, 0.75 mg/kg) was “TRACE” and the “Urinalysis BILIRUBIN” value [1, 8] was “NEGATIVE”. The “Urinalysis BLOOD” value [1, 8] was “TRACE and NEG-”, the “Urinalysis KETONES” value [1, 8] was “NEGATIVE” and the “Urinalysis pH” value [1, 8] was 7.5 and 6 and 8 (2×). The “Urinalysis BILIRUBIN” value [1, 9] was “NEGATIVE”, the “Urinalysis BLOOD” value [1, 9] was “TRACE and NEG- (3×)” and the “Urinalysis KETONES” value [1, 9] was “NEGATIVE”. For the same compound, the “Urinalysis pH” value [1, 9] was 7, the “Urinalysis GLUCOSE” value [1, 10] was “NEGATIVE” and the “Urinalysis UROBILINOGEN” value [1, 10] was “NORMAL”. The “Urinalysis GLUCOSE” value [1, 11] was “NEGATIVE”, the “Urinalysis UROBILINOGEN” value [1, 11] was “NORMAL” and the “urinalysis parameters vs controls” value [1] was “no notable differences in any of the urinalysis parameters”. For the same compound, the inhibition (nAChR α4/β2) was “inhibited receptor activity”, the potentiation (nAChR α3/β4; with 10 μM Ach) was “Neither nicotine nor anatabine potentiated” and the “p65 phosphorylation in brain” value [2] was “reduced p65 phosphorylation in mouse brain”. The “Concentration in rat plasma” value ([3]; rat plasma, time point 4 hr) was “<LLQ”, the “Concentration in rat plasma” value ([3]; rat plasma, time point 6 hr) was “<LLQ” and the “Concentration in rat plasma” value ([3]; rat plasma, time point 8 hr) was “<LLQ”. The “Concentration in rat plasma” value ([3]; rat plasma, time point 24 hr) was “<LLQ”, the “Avg. Conc. (Combined Male and Female)” value ([3]; Anatabine 0.1 mg/kg, 8 hr) was “<LLQ” and the “Avg. Conc. (Combined Male and Female)” value ([3]; Anatabine 0.1 mg/kg, 24 hr) was “<LLQ”. The “Avg. Conc. (Male or Female)” value ([3]; Anatabine 0.1 mg/kg, female, 8 hr) was “<LLQ”, the “Avg. Conc. (Male or Female)” value ([3]; Anatabine 0.1 mg/kg, female, 24 hr) was “<LLQ” and the “Avg. Conc. (Male or Female)” value ([3]; Anatabine 0.1 mg/kg, male, 6 hr (1st line)) was “<LLQ”. For the same compound, the “Avg. Conc. (Male or Female)” value ([3]; Anatabine 0.1 mg/kg, male, 8 hr) was “<LLQ”, the “Avg. Conc. (Male or Female)” value ([3]; Anatabine 0.1 mg/kg, male, 24 hr) was “<LLQ” and the “Avg. Conc. (Combined Male and Female)” value ([3]; Anatabine 0.75 mg/kg, 24 hr) was “<LLQ”. The “Avg. Conc. (Male or Female)” value ([3]; Anatabine 0.75 mg/kg, female, 24 hr) was “<LLQ”, the “Avg. Conc. (Male or Female)” value ([3]; Anatabine 0.75 mg/kg, male, 24 hr) was “<LLQ” and the “Avg. Conc. (Combined Male and Female)” value ([3]; Anatabine 1.0 mg/kg, 24 hr) was “<LLQ”. For the same compound, the “Avg. Conc. (Male or Female)” value ([3]; Anatabine 1.0 mg/kg, female, 24 hr) was “<LLQ”, the “Avg. Conc. (Male or Female)” value ([3]; Anatabine 1.0 mg/kg, male, 24 hr) was “<LLQ” and the half-life [3, 12] was 1.64 ± 0.59 h. For the same compound, the half-life [3, 13] was 1.64 ± 0.12 h, the half-life ([3]; both sexes, rat plasma, single i.v. 0.75 mg/kg, M + F) was 1.68 ± 0.09 h and the half-life ([3]; both sexes, rat plasma, single i.v. 1.0 mg/kg, M + F) was 1.64 ± 0.25 h. The “apparent volume of distribution (VD) compared with nicotine” value ([3]; rat plasma, single i.v.) was “significantly greater than that of nicotine”, the “AUC0→∞” value [3, 14] was 35.0 ± 11.6 ng·h/mL and the VD [3, 14] was 6.08 ± 0.45 L/kg. The t1/2 [3, 14] was 1.44 ± 0.48 h, the “AUC0→∞” value [3, 12] was 37.9 ± 15.9 ng·h/mL and the VD [3, 12] was 6.52 ± 0.66 L/kg. The “AUC0→∞” value [3, 15] was 32.0 ± 7.7 ng·h/mL, the VD [3, 15] was 5.29 ± 0.49 L/kg and the t1/2 [3, 15] was 1.25 ± 0.32 h. For the same compound, the “AUC0→∞” value [3, 16] was 504.4 ± 63.5 ng·h/mL, the VD [3, 16] was 3.33 ± 0.13 L/kg and the “AUC0→∞” value [3, 17] was 544.5 ± 62.7 ng·h/mL. The VD [3, 17] was 3.19 ± 0.15 L/kg, the t1/2 [3, 17] was 1.73 ± 0.03 h and the “AUC0→∞” value [3, 13] was 464.4 ± 36.2 ng·h/mL. The VD [3, 13] was 3.48 ± 0.18 L/kg, the “AUC0→∞” value [3, 18] was 710.07 ± 88.4 ng·h/mL and the VD [3, 18] was 3.08 ± 0.16 L/kg. The “AUC0→∞” value [3, 19] was 788.9 ng·h/mL, the VD [3, 19] was 3.16 ± 0.15 L/kg and the t1/2 ([3]; rat plasma, single i.v. 1.0 mg/kg, female, 1 mg/kg) was 1.84 h. The “AUC0→∞” value [3, 20] was 631.3 ng·h/mL, the VD [3, 20] was 3.01 ± 0.12 L/kg and the t1/2 ([3]; rat plasma, single i.v. 1.0 mg/kg, male, 1 mg/kg) was 1.44 h. The “plasma concentration between approximately 6 and 8 hours” value ([3]; rat, single i.v., nicotine 0.4 mg/kg, anatabine 0.1 mg/kg) was “below the limits of quantitation”.
